The target in the experiment is Vascular endothelial growth factor receptor 2 (Homo sapiens, UniProt P35968). The experiment in a line: Inhibition Assay: [Experimental method]: Use Lance@Ultra Ulight™-TK assay kit from PerKinElmer to evaluate the inhibitory activity of compounds at KDR kinase. [Instrument]: PerKinElmer's ENVISION plate reader. [Materials]: Optiplate-384 well plate (PerKinElmer), kinase buffer (50 mM Hepes pH7.5, 0.25 mM EGTA, 2 mM DTT, 0.01% Tween 20, 10 mM Mg2+, 0.5 mM Mn2+), KDR kinase (790-1356 AA, Crown Bioscience), KDR kinase substrate (PerKinElmer catalogue # TRF0127-M), Lance@Eu-W1024-anti-phosphotyrosine (PT66) (PerKinElmer, catalogue #AD0068), ATP (Invitrogen), DMSO (Sigma, catalogue #34869), purified water (Millipore, type: Milli-Q). [Study conditions]: Mix KDR (final concentration: 20 nM) and compound (final DMSO: 0.5%), pre-incubate for 20 min at 30° C.; then add ATP (final concentration: 90 μM) and the substrate (final concentration 50 μM). React for 2 hrs at 30° C. After the reaction, add antibody and reaction for 60 min at 30° C. Read the plate (615 nm, 665 nm), calculate the ratio of the value at 665 nm vs 615 nm and analyze the data.
Vascular endothelial growth factor receptor 2, sequence (P35968 whole entry, the tested form may be a part): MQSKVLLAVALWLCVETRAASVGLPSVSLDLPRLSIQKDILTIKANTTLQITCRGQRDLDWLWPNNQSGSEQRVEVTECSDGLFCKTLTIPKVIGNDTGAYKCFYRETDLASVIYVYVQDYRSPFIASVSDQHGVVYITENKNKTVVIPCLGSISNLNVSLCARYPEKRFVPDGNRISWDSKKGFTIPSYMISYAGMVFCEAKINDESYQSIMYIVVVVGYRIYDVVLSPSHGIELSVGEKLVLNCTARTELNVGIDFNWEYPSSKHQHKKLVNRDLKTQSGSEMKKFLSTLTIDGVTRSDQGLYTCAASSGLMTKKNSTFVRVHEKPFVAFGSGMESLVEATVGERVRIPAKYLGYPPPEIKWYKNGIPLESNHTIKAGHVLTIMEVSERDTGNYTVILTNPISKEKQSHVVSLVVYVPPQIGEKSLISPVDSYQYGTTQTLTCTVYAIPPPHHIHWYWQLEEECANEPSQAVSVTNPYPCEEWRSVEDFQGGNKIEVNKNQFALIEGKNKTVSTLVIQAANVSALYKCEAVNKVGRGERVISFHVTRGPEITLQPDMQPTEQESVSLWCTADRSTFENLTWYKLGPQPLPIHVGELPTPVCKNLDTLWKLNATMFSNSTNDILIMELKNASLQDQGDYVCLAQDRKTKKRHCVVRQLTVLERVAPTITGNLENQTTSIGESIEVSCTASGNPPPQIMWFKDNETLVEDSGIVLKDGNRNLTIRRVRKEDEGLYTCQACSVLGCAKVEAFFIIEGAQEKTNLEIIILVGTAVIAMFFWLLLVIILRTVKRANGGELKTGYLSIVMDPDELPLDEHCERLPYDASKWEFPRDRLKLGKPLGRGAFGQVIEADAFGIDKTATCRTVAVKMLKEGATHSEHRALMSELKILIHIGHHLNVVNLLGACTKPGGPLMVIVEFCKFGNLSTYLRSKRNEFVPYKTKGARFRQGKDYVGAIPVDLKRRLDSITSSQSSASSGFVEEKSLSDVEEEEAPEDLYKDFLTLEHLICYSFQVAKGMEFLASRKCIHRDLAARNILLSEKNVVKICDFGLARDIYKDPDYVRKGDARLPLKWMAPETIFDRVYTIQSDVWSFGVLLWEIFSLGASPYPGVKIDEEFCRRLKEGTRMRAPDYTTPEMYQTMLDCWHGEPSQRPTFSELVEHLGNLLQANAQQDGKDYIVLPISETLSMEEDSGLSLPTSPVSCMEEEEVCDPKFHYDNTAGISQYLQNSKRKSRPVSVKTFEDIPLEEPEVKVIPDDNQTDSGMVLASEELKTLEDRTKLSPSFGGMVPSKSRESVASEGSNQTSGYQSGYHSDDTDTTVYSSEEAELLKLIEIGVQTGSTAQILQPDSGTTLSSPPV

On to `CC(c1cc(NC(=O)Nc2ccc(Oc3ccnc(NC(=O)C4CC4)c3)c(F)c2)cc(C(F)(F)F)c1)N1CCNCC1` (configuration not stated), for which the IC50 is 26.6 nM. Turning to `O=C(Nc1ccc(Oc2ccnc(NC(=O)C3CC3)c2)c(F)c1)Nc1ccc(Cl)c(C(F)(F)F)c1`, the IC50 was 11.5 nM.

Values taken from ChEMBL document CHEMBL3886771, “Cyclopropanecarboxamido-substitute aromatic compounds as anti-tumor agents” (2016).
